pKi: −log10 of the molar value.
Legend:
[1] = Inhibition of Bacteroides thetaiotaomicron beta-N-acetylglucosaminidase GH84 using p-nitrophenyl 2-acetamido-2-deoxy-beta-D-glucosaminide substrate at pH 7.0 and 25 degC
[2] = Inhibition of Talaromyces flavus beta-N-acetylhexosaminidase GH20 using p-nitrophenyl 2-acetamido-2-deoxy-beta-D-glucosaminide substrate at pH 7.0 and 25 degC
[3] = Inhibition of Streptomyces plicatus beta-N-acetylhexosaminidase GH20 using p-nitrophenyl 2-acetamido-2-deoxy-beta-D-glucosaminide substrate at pH 7.0 and 25 degC

Structure (SMILES)	pKi [1]	pKi [2]	pKi [3]
CC1=N[C@@H]2[C@@H](O)[C@H](O)[C@@H](CO)O[C@@H]2S1	7.54	4.37	4.62
CC1=N[C@H]2[C@H](O[C@H](CO)C[C@@H]2O)S1	2.74	2.72	2.00
CC1=N[C@@H]2[C@@H](O)[C@@H](O)[C@@H](CO)O[C@@H]2S1		3.41	4.04

From ChEMBL document CHEMBL3352058, “Inhibition of microbial β-N-acetylhexosaminidases by 4-deoxy- and galacto-analogues of NAG-thiazoline” (Bioorg Med Chem Lett, 2014)
